In US10308689B2, “Dengue virus (DV) polypeptide sequences, T cell epitopes and methods and uses thereof” (LA JOLLA INSTITUTE FOR ALLERGY AND IMMUNOLOGY, priority 2010, dated 2019):
Ends that are not written are not given here.

Tested on: PBMC of healthy adult blood donors from Colombo, Sri Lanka
Experiment: Ex vivo IFNγ ELISPOT, HLA-matched PBMC of Sri Lankan blood donors
Assay type: cell-based, human
Parameters: Total Response per epitope: unit not given here
Details: for # donors responded: number of donors responding to the epitope; for T cell response [SFC]: ex vivo IFNγ SFC/10^6 PBMC; for # of responders: responding donors, HLA allele(s)
[1] = IFNγ ELISPOT response summed over responding donors, per epitope
[2] = HLA-matched PBMC, proteome-wide screen
[3] = restricting HLA allele and serotype as given
[4] = total over responding donors, restricting HLA allele and serotype as given

Row | Compound | Total Response per epitope [1] | # donors responded [2] | # donors responded [3] | T cell response [SFC] (per epitope) | # of responders | Total Response per epitope [4]
1 | CC[C@H](C)[C@H](NC(=O)[C@@H](NC(=O)[C@@H](NC(=O)[C@H](CC(N)=O)NC(=O)[C@H](Cc1c[nH]c2ccccc12)NC(=O)[C@H](Cc1ccccc1)NC(=O)[C@H](CCCCN)NC(=O)CNC(=O)[C@@H]1CCCN1C(=O)[C@@H](N)CO)[C@@H](C)O)[C@@H](C)O)C(=O)O | 826.7 | 3 |  |  |  | 
2 | C[C@H](NC(=O)[C@H](Cc1c[nH]c2ccccc12)NC(=O)[C@@H](NC(=O)[C@H](CCCNC(=N)N)NC(=O)[C@H](Cc1ccc(O)cc1)NC(=O)[C@@H]1CCCN1C(=O)[C@H](CC(N)=O)NC(=O)[C@H](CCC(=O)O)NC(=O)[C@@H](N)CCC(N)=O)[C@@H](C)O)C(=O)N[C@@H](Cc1ccc(O)cc1)C(=O)O | 265.0 | 1 |  |  |  | 
3 | CC(C)C[C@H](NC(=O)[C@@H](NC(=O)[C@@H](NC(=O)[C@H](CC(C)C)NC(=O)[C@@H]1CCCN1C(=O)CNC(=O)[C@@H](NC(=O)[C@H](C)N)[C@@H](C)O)[C@@H](C)O)[C@@H](C)O)C(=O)N[C@@H](Cc1c[nH]c2ccccc12)C(=O)O |  |  | 1 | 275 | 1 | 275.0
4 | CC[C@H](C)[C@H](NC(=O)[C@H](CO)NC(=O)[C@H](CCCCN)NC(=O)[C@H](CCCNC(=N)N)NC(=O)CNC(=O)[C@H](CO)NC(=O)[C@H](C)NC(=O)[C@@H](N)Cc1ccccc1)C(=O)N[C@H](C(=O)N[C@@H](CC(C)C)C(=O)O)[C@@H](C)O |  |  | 1 |  |  | 26.7
5 | CC[C@H](C)[C@H](N)C(=O)N1CCC[C@H]1C(=O)N[C@@H](CCSC)C(=O)N[C@@H](C)C(=O)N[C@H](C(=O)N[C@@H](Cc1ccc(O)cc1)C(=O)NCC(=O)N[C@@H](Cc1c[nH]c2ccccc12)C(=O)N[C@@H](CC(N)=O)C(=O)N[C@@H](CC(C)C)C(=O)O)[C@@H](C)O |  |  | 2 |  |  | 456.7
6 | FTILALFLAH |  |  | 8 | 1715 | 8 | 1715.0
7 | CC[C@H](C)[C@H](N)C(=O)N[C@H](C(=O)N[C@@H](CC(C)C)C(=O)N[C@@H](CC(C)C)C(=O)N[C@@H](CS)C(=O)N[C@@H](CC(C)C)C(=O)N[C@H](C(=O)N1CCC[C@H]1C(=O)N[C@H](C(=O)N[C@H](C(=O)O)C(C)C)[C@@H](C)O)[C@@H](C)CC)[C@@H](C)O |  |  | 1 |  |  | 63.3
8 | LPVWLAHKVA | 23.3 | 1 |  | 23 | 1 | 
9 | CSCC[C@H](N)C(=O)N1CCC[C@H]1C(=O)N[C@H](C(=O)N[C@H](C(=O)N[C@@H](Cc1c[nH]cn1)C(=O)N[C@@H](CO)C(=O)N[C@@H](CO)C(=O)N[C@@H](C)C(=O)N[C@@H](C)C(=O)N[C@@H](CCC(N)=O)C(=O)O)[C@@H](C)O)C(C)C | 183.3 | 2 |  |  |  | 
10 | RFLEFEALGF | 181.7 | 1 |  |  |  | 
11 | CC[C@H](C)[C@H](NC(=O)[C@H](C)NC(=O)CNC(=O)[C@@H](N)Cc1ccccc1)C(=O)N[C@@H](Cc1ccc(O)cc1)C(=O)NCC(=O)N[C@@H](C)C(=O)N[C@@H](C)C(=O)N[C@@H](Cc1ccccc1)C(=O)O |  |  | 3 |  |  | 798.3
12 | CC[C@H](C)[C@H](NC(=O)[C@H](Cc1ccccc1)NC(=O)[C@H](C)NC(=O)[C@@H](N)CCSC)C(=O)N[C@@H](C)C(=O)N[C@@H](Cc1ccccc1)C(=O)N[C@@H](CC(C)C)C(=O)N[C@@H](CCCNC(=N)N)C(=O)N[C@@H](Cc1ccccc1)C(=O)O | 146.7 | 2 |  |  |  | 
13 | ATGPVLTLW |  |  | 2 | 390 | 2 | 390.0
14 | LATGPVLTLW |  |  | 1 | 745 | 1 | 745.0
